Like-named read-outs stand apart in the source and are kept apart here.
Assays:
Format in all cases: cell-based
[1] = system: bone marrow-derived human mesenchymal stem cells (hMSCs); conditions: for hMSC viability compared with DMSO control groups: 0.2 M trehalose
Procedure: Experiments were performed using bone marrow-derived human mesenchymal stem cells (hMSCs) from various commercial sources Human Bone-Marrow Derived Mesenchymal Stem/Stromal Cells (hBM-MSCs) were isolated from normal healthy adult donors (purchased from a commercial source (such as Rooster-Bio) along with the appropriate growth media). Cells were grown according to the manufacturer's instructions).
Prior to the development of the methodology of the present disclosure, the inventors of the instant application previously assessed a nanotechnology for intracellular trehalose delivery developed by Professor Xiaoming He, University of Maryland (Zhang et al., Cold-Responsive Nanoparticle Enables Intracellular Delivery and Rapid Release of Trehalose for Organic-Solvent-Free Cryopreservation, Nano Lett. 2019, 19, 9051-9061; Rao et al., Nanoparticle-Mediated Intracellular Delivery Enables Cryopreservation of Human Adipose-Derived Stem Cells Using Trehalose as the Sole Cryoprotectant, ACS Appl Mater Interfaces, 2015, 7(8), 5017-5028), that they had shown promoted cryopreservation of adipose tissue derived hMSCs, for bone marrow-derived MSCs. Unfortunately, the trehalose nanotechnology failed during these studies, probably due to instability of the trehalose nanoparticles during storage and transport from the University of Maryland to Charleston, S.C. […] Encouraged by these unanticipated results, the range of exogenous trehalose employed was expanded to 0.2-0.8M and compared −1, −5 and −15° C./minute cooling rates.
In the preliminary experiments, the DMSO controls were clearly the best at the 1° C./minute cooling rate (65.3±2.7% of untreated controls), however, the best overall outcome was the 0.2M trehalose group at the −15° C./minute cooling rate (78.9±3.5% of untreated controls).

Pan T-cells [2] = experiment: Pan T-cell survival after cryopreservation, live and dead cell counts (trypan blue); conditions: trehalose alone, no DMSO; −15° C./minute
Procedure: (§1) Experiments were performed to assess 0.2-0.8M concentrations of extracellular trehalose combined with several concentrations of 0-5% DMSO and compared with the positive control, Cryostor-5, that contains 5% DMSO.
(§2) Pan T-cells were grown and expanded. The T-cells were then harvested and counted. Approximately 10×10^6 cells were used for each sample. Cells were resuspended in the various combinations of DMSO and trehalose in 1 mL and allowed to equilibrate on ice for 20 minutes. Samples were cooled in a CRF at −15° C./minute to −80° C. then moved to liquid nitrogen vapor phase storage for approximately 10 days. After storage, samples were thawed rapidly in a 37° C. water bath, transferred to a 15 mL centrifuge tube and diluted with 10 mL culture medium. An aliquot was taken for cell counting. […] Cells were allowed to recover for 60 minutes in a 37° C. incubator before viability was measured using resazurin dye (300 μl). The cells were left for 3 hours at 37° C. before the plate was read using a fluorescent microplate reader at an excitation wavelength of 544 nm and an emission wavelength of 590 nm. […]
(§3) In FIGS. 3A and 3B, cell survival after cryopreservation at −15° C./minute using combinations of DMSO and trehalose. […] Cell counts, live and dead, (A) as well as metabolic activity (B) was measured. […]

Pan T-cells [3] = experiment: Pan T-cell metabolic activity after cryopreservation (resazurin dye); conditions: −15° C./minute
Procedure: as §1, §2, §3

SMILES | hMSC viability after cryopreservation [1] | protection during cryopreservation compared with control Cryostor-5 (Pan T-cells [2]) | hMSC viability compared with DMSO control groups ([1]; −5° C./minute cooling rate) | hMSC viability compared with DMSO control groups ([1]; −15° C./minute cooling rate) | MSC survival of cryopreservation ([1]; trehalose present only extracellularly (used as negative control)) | cell metabolic activity, difference from control Cryostor-5 (Pan T-cells [3]; 0% DMSO with 0.2M trehalose, p>0.05) | cell metabolic activity, difference from control Cryostor-5 (Pan T-cells [3]; 0% DMSO, all trehalose groups except 0.2M)
C[S+](C)[O-] [DMSO, dimethyl sulfoxide, reference compound] | 65.3±2.7 % of untreated controls | – | – | – | – | – | –
OC[C@H]1O[C@H](O[C@H]2O[C@H](CO)[C@@H](O)[C@H](O)[C@H]2O)[C@H](O)[C@@H](O)[C@@H]1O [trehalose] | 78.9±3.5 % of untreated controls | adequate protection similar to the control | same or higher viability than the DMSO control groups | same or higher viability than the DMSO control groups | survived cryopreservation quite well | significant difference | no statistically significant differences

From patent publication US20220354108A1, “PRESERVATION METHODS USING TREHALOSE WITH OTHER CRYOPROTECTANTS BEING ABSENT FROM THE CRYOPRESERVATION PROTOCOL” (TISSUE TESTING TECHNOLOGIES LLC, priority 2021, published 2022)
